Key:
Histamine H3 receptor [1] = biological target: T1, Histamine H3 receptor (Homo sapiens, UniProt Q9Y5N1); experiment: Displacement of [125I]Iodoproxyfan from recombinant human histamine H3 receptor expressed in HEK293 cells after 90 mins; format: cell-based
Histamine H3 receptor [2] = biological target: T1, Histamine H3 receptor; experiment: Displacement of [3H]N-alpha-methylhistamine from recombinant human histamine H3 receptor expressed in HEK293 cells after 90 mins; format: cell-based
Histamine H3 receptor [3] = biological target: Histamine H3 receptor (Rattus norvegicus, UniProt Q9QYN8); experiment: Binding affinity to rat histamine H3 receptor
Histamine H3 receptor (Rattus norvegicus, UniProt Q9QYN8), sequence (Q9QYN8 whole entry): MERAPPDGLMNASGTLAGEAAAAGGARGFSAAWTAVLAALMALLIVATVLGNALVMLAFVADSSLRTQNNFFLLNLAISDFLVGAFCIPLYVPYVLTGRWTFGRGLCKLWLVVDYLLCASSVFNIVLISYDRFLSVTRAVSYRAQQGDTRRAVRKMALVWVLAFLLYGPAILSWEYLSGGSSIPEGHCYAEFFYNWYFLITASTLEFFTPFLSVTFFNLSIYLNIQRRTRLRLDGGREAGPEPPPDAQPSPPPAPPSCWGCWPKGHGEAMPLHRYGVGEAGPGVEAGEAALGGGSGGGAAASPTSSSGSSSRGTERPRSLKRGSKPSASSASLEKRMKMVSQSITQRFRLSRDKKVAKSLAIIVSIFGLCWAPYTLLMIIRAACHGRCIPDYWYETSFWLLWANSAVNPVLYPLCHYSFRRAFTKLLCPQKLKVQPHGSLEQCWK

T1 sequence (Q9Y5N1 whole entry): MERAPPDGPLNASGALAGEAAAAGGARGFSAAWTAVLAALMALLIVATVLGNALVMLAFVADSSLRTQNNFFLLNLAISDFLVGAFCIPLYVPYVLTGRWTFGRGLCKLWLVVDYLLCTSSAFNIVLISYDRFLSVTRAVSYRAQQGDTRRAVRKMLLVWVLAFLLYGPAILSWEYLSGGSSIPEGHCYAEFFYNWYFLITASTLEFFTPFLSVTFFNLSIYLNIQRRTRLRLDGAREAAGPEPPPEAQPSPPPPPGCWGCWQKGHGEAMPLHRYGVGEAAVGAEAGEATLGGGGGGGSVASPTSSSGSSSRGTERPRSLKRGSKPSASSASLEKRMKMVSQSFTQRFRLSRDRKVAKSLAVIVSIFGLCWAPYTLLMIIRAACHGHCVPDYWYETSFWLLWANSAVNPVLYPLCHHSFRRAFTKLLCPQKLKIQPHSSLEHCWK

Row | Ki (Histamine H3 receptor [1]) [nM] | Ki (Histamine H3 receptor [2]) [nM] | SMILES | further results
1 | 2.51 | – | O=C1CCN(Cc2ccc(OCCCN3CCCCC3)cc2)CC1 | –
2 | – | 12.9 | O=C(O)C1CCN(Cc2ccc(OCCCN3CCCCC3)cc2)CC1 | –
3 | – | – | c1cc(OCCCN2CCCCC2)ccc1CN1CCCCC1 [JNJ-5207852] | Ki (Histamine H3 receptor [3]): 0.58 nM
4 | – | 0.676 | OCC1CCN(Cc2ccc(OCCCN3CCCCC3)cc2)CC1 | –
5 | 11 | – | C#CCNC(=O)C1CCN(Cc2ccc(OCCCN3CCCCC3)cc2)CC1 | –
6 | – | 0.229 | CCOC(=O)C1CCN(Cc2ccc(OCCCN3CCCCC3)cc2)CC1 | –
7 | – | 0.589 | OC1CCN(Cc2ccc(OCCCN3CCCCC3)cc2)CC1 | –
8 | 2.95 | – | CCNC(=O)C1CCN(Cc2ccc(OCCCN3CCCCC3)cc2)CC1 | –
9 | 2.95 | – | c1ccc2c(c1)CCN(Cc1ccc(OCCCN3CCCCC3)cc1)C2 | –
10 | 2.04 | – | c1cc(OCCCN2CCCCC2)ccc1CN1CCC2(CC1)OCCO2 | –
11 | – | 0.479 | Cc1nnc(C2CCN(Cc3ccc(OCCCN4CCCCC4)cc3)CC2)o1 | –

— ChEMBL document CHEMBL3259594, “Benzylpiperidine variations on histamine H3 receptor ligands for improved drug-likeness” (Bioorg Med Chem Lett, 2014)
